In article PMC4295395, “An open label pilot study to evaluate the efficacy of Spanish black radish on the induction of phase I and phase II enzymes in healthy male subjects” (BMC Complementary and Alternative Medicine, 2014):

Key:
[1] = Plasma acetaminophen and metabolite profile (HPLC) after 1000 mg acetaminophen, at week 0 and after 4 weeks of SBR supplementation; conditions: for Decrease of plasma AUC0-8h from week 0 to week 4: after 4 weeks SBR supplementation; for Decrease of plasma AUC0-8h from week 0 to week 4 / AUC(0-t) / Cmax / Tmax / Plasma AUC(0–8 hour) / Plasma Tmax / Plasma Cmax: 1000 mg acetaminophen; for Plasma Tmax, difference from week 0 to week 4: after 4 weeks SBR vs week 0, mean ± SD; for AUC(0-t) / Cmax / Tmax: male, human, plasma, oral, 1000 mg; for AUC(0-t): Plasma AUC(0–8 hour); for Cmax: Plasma Cmax; for Tmax: Plasma Tmax
Procedure: (§1) Participants returned to the clinic for their 8-hour in-clinic baseline visit (week 0) at which time their heart rate and blood pressure were measured and BMI calculated. […] Meals were provided after the pre-dose and 4-hour blood collection. After the 8-hour test period, participants received 3-day food records and paper diaries for recording their study product use, changes in concomitant therapies, and any side effects/changes in health conditions.
(§2) Participants returned to the clinic in a fasting state at 28 days post-baseline (week 4) for an 8-hour in-clinic test at which time heart rate and blood pressure were measured and BMI was calculated. […] Meals were provided after the pre-dose and the 4-hour blood collection. Subjects were required to consume the same meal items on each of the 8-hour test days.
The plasma was separated and aliquoted into 1.0 mL volume samples. These samples were stored below -40°C until high-performance […] chromatography (HPLC) analysis was performed. Plasma samples were prepared for HPLC analysis by adding 25 μl of 30% w/v aqueous perchloric acid (311413, Sigma-Aldrich, Toronto, Canada) to 250 μl of plasma in a 1.5 ml Eppendorf tube and then vortexed for 30 seconds and centrifuged at 1800 g for 10 min and 20 μl of clear supernatant was injected into the HPLC system.
Paracetamol (50 μg, A5000, Sigma-Aldrich, Toronto, Canada), paracetamol glucuronide (50 μg, A4438, Sigma-Aldrich, Toronto, Canada), or paracetamol sulfate (50 μg, A161230, Toronto Research Chemical Inc., Toronto, Canada) was added to 1 ml of Milli Q water/methanol mixture (50:50 v/v). NAPQI (50 μg, A170000, Toronto Research Chemical) was added to 1 ml acetonitrile. […] standard solutions were prepared in plasma devoid of paracetamol (blank) at the following concentrations: 25 μg/ml, 12.5 μg/ml, 6.25 μg/ml, 3.125 μg/ml, 1.56 μg/ml, 0.78 μg/ml and 0.39 μg/ml by serial dilution.
(§3) The chromatography system comprised of a Varian Solvent Delivery module 210, injector Varian Auto Sampler model 410, Varian 335 Photo Diode Array Detector for detection and MS workstation software 6.4.1 for data acquisition. Reverse phase isocratic HPLC analysis was performed with a C18 column with particle size 4 μm (4.6x150 mm). The flow rate was 0.65-0.75 ml/minute and the detection was at 240–245 nm. A 0.1 M sodium phosphate buffer containing acetonitrile at a ratio of 10:90 (v/v) was used as the mobile phase for plasma analysis. A 1 M sodium phosphate buffer containing acetonitrile at a ratio of 5:95 (v/v) was used as mobile phase for urine analysis.
(§4) Statistical comparisons of maximum concentrations (Cmax) and area under the concentration time curve (AUC) were performed on log transformed data. A paired t-test was used to compare pre- and post-treatment measurements of safety end points: biometrics, vital signs, hematology and blood clinical chemistry parameters. SAS Version 9.1 was used to perform the statistical analysis, with probability values ≤0.05 considered statistically significant.

[2] = Urine acetaminophen and metabolite profile (HPLC) after 1000 mg acetaminophen, at week 0 and after 4 weeks of SBR supplementation; assay type: in vivo, human; conditions: for Urine concentration at time points, week 4 vs week 0 (in words): 0, 2, 4, 6, 8 h after 1000 mg acetaminophen, after 4 weeks SBR; for Increase of urine levels (AUC0-8h) from week 0 to week 4: after 4 weeks SBR supplementation, 1000 mg acetaminophen
Procedure: as §1, §2
At baseline and week 4, urine was collected in separate containers at 2 hour intervals between 0 and 8 hours, aliquoted into 1.0 mL volumes and stored below -40°C until HPLC analysis. Urine samples were prepared for HPLC analysis by adding 750 μl of Milli Q water to 250 μl of urine and vortexed. The preparation was centrifuged at 1800 g for 10 min and 20 μl of the preparation was injected into the HPLC system.
Paracetamol (5000 μg, A5000, Sigma-Aldrich), paracetamol glucuronide (5000 μg, A4438, Sigma-Aldrich), paracetamol sulfate (5000 μg, A161230, Toronto Research Chemical) or paracetamol mercapturate (5000 μg, A172100, Toronto Research Chemical) were added to 1 ml of a Milli Q water/methanol mixture (50:50 v/v). Serial dilutions of each stock solution were prepared in urine devoid of paracetamol (blank) to give the following concentrations: 2500 μg/ml, 1250 μg/ml, 625 μg/ml, 312.5 μg/ml, 156.25 μg/ml, 78.15 μg/ml, 39.0625 μg/ml, 19.531 μg/ml, 9.766 μg/ml and 4.883 μg/ml by serial dilution.
as §3, §4

[3] = week 0 (before SBR), N=19, mean ± SD
[4] = week 4 (after 4 weeks SBR), N=19, mean ± SD
[5] = week 0 (before SBR), healthy males N=19, mean ± SD
[6] = week 4 (after 4 weeks SBR, 6 tablets daily), N=19, mean ± SD
[7] = after 4 weeks SBR vs week 0, mean ± SD

| AUC(0-t) [1, 3] | AUC(0-t) [1, 4] | Cmax [1, 5] | Cmax [1, 6] | Tmax [1, 3] | Tmax [1, 4] | Urine concentration at time points, week 4 vs week 0 (in words) [2] | Increase of urine levels (AUC0-8h) from week 0 to week 4 [2] | Urine AUC(0–8 hour), difference from week 0 to week 4 [2, 7] | Urine Cmax, difference from week 0 to week 4 [2, 7] | Urine Tmax, difference from week 0 to week 4 [2, 7] | SMILES | Plasma concentration at time points, week 4 vs week 0 (in words) ([1]; 0, 2, 4, 6, 8 h after 1000 mg acetaminophen, after 4 weeks SBR) | Decrease of plasma AUC0-8h from week 0 to week 4 [1] | Plasma Tmax, difference from week 0 to week 4 [1] | Plasma AUC(0–8 hour) [1, 3] | Plasma Tmax [1, 3] | Plasma Cmax [1, 5] | Plasma AUC(0–8 hour) [1, 4] | Plasma Tmax [1, 4] | Plasma Cmax [1, 6] |
| --- | --- | --- | --- | --- | --- | --- | --- | --- | --- | --- | --- | --- | --- | --- | --- | --- | --- | --- | --- | --- |
| 58000 ± 14500 ng·h/mL | 52800 ± 14100 ng·h/mL | 12600 ± 4120 ng/mL | 10800 ± 3090 ng/mL | 2.13 ± 0.46 h | 2.55 ± 1.13 h | no significant differences | 1% | -38.69 ± 342.45 mg·h | 19.57 ± 124.28 mg | 0.32 ± 1.67 h | CC(=O)Nc1ccc(O[C@@H]2O[C@H](C(=O)O)[C@@H](O)[C@H](O)[C@H]2O)cc1 [Acetaminophen glucuronide] | decreased significantly at 2 h post-acetaminophen dose | 9% | 0.42 ± 1.26 h |  |  |  |  |  |  |
|  |  |  |  |  |  | higher at all time points | 37% | 22.68 ± 44.43 mg·h | 4.82 ± 9.72 mg |  | CC(=O)Nc1ccc(O)c(SCC(N)C(=O)O)c1 (centres unmarked) [Acetaminophen mercapturate] |  |  |  |  |  |  |  |  |  |
|  |  |  |  |  |  |  |  |  |  |  | CC(=O)Nc1ccc(O)c(SC[C@H](NC(=O)CC[C@H](N)C(=O)O)C(=O)NCC(=O)O)c1 [NAPQI-GSH] |  | 9% | -0.00 ± 0.02 h | 0.72 ± 0.31 µM·h | 2.03 ± 0.01 h | 180 ± 90 nM | 0.66 ± 0.22 µM·h | 2.02 ± 0.01 h | 180 ± 40 nM |
